Results: patent US7476650B2, “Enzyme inhibition” (Yale University, priority 1999, dated 2009)
Like-named read-outs stand apart in the source and are kept apart here. Where a SMILES comes first, the peptide text is derived from it. The star is where a group is joined. X1 = CC(C)C[C@H](N*)C(=O)[C@@]1(C)CO1

Tests used:
[1] = molecular target: T1, chymotrypsin-like activity of purified bovine erythrocyte 20S proteasome (Bos taurus, UniProt Q32KL2); experiment: Enzyme kinetic assay, chymotrypsin-like activity (Suc-LLVY-AMC); type: biochemical; details: for kobs/[I] Chymotrypsin-like: Table 3; for kinact/KI: pH 8, inhibitor concentration range in parentheses; for kobs/[I] for chymotryptic-like activity using Suc-LLVY-AMC: Examples 9 and 10, in M-1s-1
T1 construct: from tissue; host or cells: bovine erythrocytes (red blood cells)
Source text: (§1) We investigated the potency of inhibitors of various length. Mono-, di-,tri- and tetraleucine α′,β′-epoxides were ranked by determination of the kobs/[I] values for inhibition of the chymotrypsin-like, trypsin-like, and PGPH activities of purified bovine erythrocyte 20S proteasome.
(§2) Purified bovine erythrocyte proteasome was enzymatically assayed using a variety of different substrates and inhibitors. In order to evaluate the rates of proteolytic inactivation by inhibitors, kassociation (kobs/[I]) values were determined using fluorogenic peptide substrates over a range of inhibitor concentrations.

[2] = molecular target: T2, trypsin-like activity of purified bovine erythrocyte 20S proteasome (Bos taurus, UniProt Q2TBP0); experiment: Enzyme kinetic assay, trypsin-like activity (Boc-LRR-AMC); type: biochemical; details: for kobs/[I] Trypsin-like: Table 3; for kobs/[I] for tryptic-like activity using Boc-LRR-AMC: Examples 9 and 10; for kinact/KI: pH 8, inhibitor concentration range in parentheses
T2 construct: from tissue; host or cells: bovine erythrocytes (red blood cells)
Source text: as §1, §2

[3] = molecular target: T3, PGPH activity of purified bovine erythrocyte 20S proteasome (Bos taurus, UniProt Q3MHN0); experiment: Enzyme kinetic assay, PGPH activity (Z-LLE-AMC); type: biochemical; details: for kobs/[I] PGPH: Table 3; for kinact/KI: pH 8, inhibitor concentration range in parentheses; for selectivity for the PGPH activity: in words, data not shown for Glu compounds; for kobs/[I] for PGPH activity using Z-LLE-AMC: Examples 9 and 10
T3 construct: from tissue; host or cells: bovine erythrocytes (red blood cells)
Protocol: as §1, with “proteasome. Enzyme kinetic assays were performed as described in Example 2.” for “proteasome.”
as §2

[4] = system: bovine aortic endothelial (BAE) cells; experiment: BAE cell proliferation ([methyl-3H]-thymidine incorporation); type: cell-based
Protocol: BAE cells were cultured at 7% CO2 and were grown in DMEM supplemented with 10% FBS, 1% penicillin/streptomycin (GIBCO), and 1 mM sodium pyruvate.
Approximately 1000 BAE cells were plated into each well of a 96-well culture plate. After an overnight incubation, different concentrations of proteasome inhibitors were added and incubation was continued for another five days. […] Subsequently, 74 kBq of [methyl-^3H]-thymidine was added to each well of the plate and the plate was incubated for another additional 4 hours. Cells were harvested using a Skatron Cell Harvester and incorporated radioactivity was quantified using liquid scintillation. Proliferation of BAE cells was assayed in triplicate in the presence of different concentrations of peptide epoxides.
Perturbation of the proteasome activity can result in inhibition of cell growth, and can further lead to cell death at elevated concentration of the proteasome inhibitors. This provides an excellent cell-based assay to assess the importance of each catalytic activity of the 20S proteasome in degradation of proteins involved in cell growth. We measured inhibition of proliferation of bovine aortic endothelial (BAE) cells with our α′,β′-epoxyketone-based inhibitors with varying degree of specificity for the PGPH activity.

[5] = Table 4, read-out: kassoc = kobs/[I] Chymotrypsin-like activity
[6] = Table 4, read-out: kassoc = kobs/[I] PGPH activity
[7] = Table 4, read-out: kassoc = kobs/[I] Trypsin-like activity
[8] = Table 1, read-out: kobs/[I] Chymotrypsin-like activity
[9] = Table 1, read-out: kobs/[I] PGPH activity

CC(=O)N[C@@H](C)C(=O)N[C@H](C(=O)N[C@@H](CC(C)C)C(=O)[C@@]1(C)CO1)C(C)C [Ac-AVL-Ex]
kobs/[I] Chymotrypsin-like [1]: 10.8 ± 0.2 M⁻¹ s⁻¹ | kobs/[I] Trypsin-like [2]: 1.8 ± 0.1 M⁻¹ s⁻¹ | kobs/[I] PGPH [3]: 12.7 ± 1.3 M⁻¹ s⁻¹

CC(C)C[C@H](NC(=O)[C@H](Cc1ccccc1)NC(=O)c1cnccn1)B(O)O [reference compound]
kinact/KI [1, 5]: 53000 M⁻¹ s⁻¹ | kinact/KI [3, 6]: 3200 M⁻¹ s⁻¹

CC[C@H](C)[C@H](NC(C)=O)C(=O)N[C@H](C(=O)N[C@H](C(=O)N[C@@H](CCC(=O)O)C(=O)[C@@]1(C)CO1)[C@@H](C)O)[C@@H](C)CC [Ac-Ile-Ile-Thr-Glu-α′,β′-epoxyketone]
selectivity for the PGPH activity [3]: did not display any significant selectivity

CCCC[C@H](NC(C)=O)C(=O)N1CCC[C@H]1C(=O)N[C@@H](Cc1ccccc1)C(=O)N[C@@H](CC(C)C)C(=O)[C@@]1(C)CO1 [Ac-NorLPFL-Ex]
kobs/[I] Chymotrypsin-like [1]: 1.9 ± 0.6 M⁻¹ s⁻¹ | inhibition of the trypsin-like activity of the proteasome ([2]; in words): no inhibition | selectivity: fold higher kobs/[I] for inhibition of the PGPH activity than the chymotrypsin-like activity ([3]; PGPH vs chymotrypsin-like): 60 fold | kobs/[I] PGPH [3]: 115 ± 15 M⁻¹ s⁻¹ | IC50 ([4]; Table 6, PGPH-directed inhibitors): 53 µM

CC(=O)N[C@@H](C)C(=O)N[C@@H](CC(C)C)C(=O)N[C@@H](CC(C)C)C(=O)N[C@@H](CC(C)C)C(=O)[C@@]1(C)CO1 [Ac-ALLL-epoxide]
kobs/[I] for chymotryptic-like activity using Suc-LLVY-AMC [1]: 5,300 | kassoc = kobs/[I] (chymotrypsin-like activity inhibition) ([1]; Table 5): 5300 M⁻¹ s⁻¹ | kobs/[I] for tryptic-like activity using Boc-LRR-AMC [2]: 3.8 M⁻¹ s⁻¹ | kobs/[I] for PGPH activity using Z-LLE-AMC [3]: 220 | IC50 ([4]; Table 5, five days incubation): 0.083 µM

isooctanoyl-Ser-Leu-α′,β′-epoxyketone [Eponemycin, reference compound]
kobs/[I] Chymotrypsin-like [1]: 58 ± 14 M⁻¹ s⁻¹ | kobs/[I] Trypsin-like [2]: 17 ± 3 M⁻¹ s⁻¹ | kobs/[I] PGPH [3]: 175 ± 2 M⁻¹ s⁻¹ | selectivity for the PGPH activity [3]: modest selectivity toward the PGPH activity

CC(=O)NCC(=O)NCC(=O)N1CCC[C@H]1C(=O)N[C@@H](Cc1ccccc1)C(=O)N[C@@H](CC(C)C)C(=O)[C@@]1(C)CO1 [Ac-GGPFL-Ex] (Ac-GGPF-X1)
kobs/[I] Chymotrypsin-like [1]: 170 ± 60 M⁻¹ s⁻¹ | kobs/[I] Trypsin-like [2]: 1.3 ± 0.3 M⁻¹ s⁻¹ | kobs/[I] PGPH [3]: 170 ± 30 M⁻¹ s⁻¹

CC(=O)N[C@@H](C)C(=O)N[C@H](C(=O)N[C@@H](CCC(=O)O)C(=O)[C@@]1(C)CO1)C(C)C [Ac-Ala-Val-Glu-α′,β′-epoxyketone]
selectivity for the PGPH activity [3]: did not display any significant selectivity

isooctanoyl-Thr-Glu-α′,β′-epoxyketone
selectivity for the PGPH activity [3]: poor PGPH-selective inhibitors

CC(=O)N1CCC[C@H]1C(=O)N[C@@H](Cc1ccccc1)C(=O)N[C@@H](CC(C)C)C(=O)[C@@]1(C)CO1 [Ac-PFL-Ex]
kobs/[I] Chymotrypsin-like [1]: 42 ± 2 M⁻¹ s⁻¹ | kobs/[I] PGPH [3]: 32 ± 6 M⁻¹ s⁻¹

CC(=O)N1CCC[C@H]1C(=O)N[C@@H](Cc1ccccc1)C(=O)N[C@@H](CCC(=O)O)C(=O)[C@@]1(C)CO1 [Ac-Pro-Phe-Glu-α′,β′-epoxyketone]
selectivity for the PGPH activity [3]: did not display any significant selectivity

CC(=O)N[C@@H](CC(C)C)C(=O)N[C@@H](Cc1cccc2ccccc12)C(=O)N[C@@H](CC(C)C)C(=O)N[C@@H](CC(C)C)C(=O)[C@@]1(C)CO1 [P3 1-naphthyl]
kobs/[I] for chymotryptic-like activity using Suc-LLVY-AMC [1]: 31,000 | kobs/[I] for tryptic-like activity using Boc-LRR-AMC [2]: not measurable | kobs/[I] for PGPH activity using Z-LLE-AMC [3]: not measurable

CC(C)[C@H](O)[C@@]12NC(=O)[C@H](C)[C@@H]1OC2=O [drawing 17, reference compound]
kinact/KI [1, 5]: 7400 M⁻¹ s⁻¹ | kinact/KI [2, 7]: 68 M⁻¹ s⁻¹ | kinact/KI [3, 6]: 47 M⁻¹ s⁻¹

CC(=O)N[C@@H](CC(C)C)C(=O)N[C@@H](CC(C)C)C(=O)N[C@@H](CC(C)C)C(=O)[C@@]1(C)CO1
kinact/KI [1, 8]: 780 M⁻¹ s⁻¹ | kinact/KI ([2]; Table 1, read-out: kobs/[I] trypsin-like activity): 5.1 M⁻¹ s⁻¹ | kinact/KI [3, 9]: 120 M⁻¹ s⁻¹

CC(C)C[C@H](NC(=O)[C@@H](N)CCc1ccccc1)C(=O)N[C@@H](Cc1ccccc1)C(=O)N[C@@H](CC(C)C)C(=O)[C@@]1(C)CO1 [compound 18]
kobs/[I] for chymotryptic-like activity using Suc-LLVY-AMC [1]: 5200 | kinact/KI [1, 5]: 5200 M⁻¹ s⁻¹ | kobs/[I] for tryptic-like activity using Boc-LRR-AMC [2]: 580 M⁻¹ s⁻¹ | kinact/KI [2, 7]: 580 M⁻¹ s⁻¹ | kinact/KI [3, 6]: 11 M⁻¹ s⁻¹

CC[C@H](C)[C@H](NC(C)=O)C(=O)N[C@H](C(=O)N[C@@H](CC(C)C)C(=O)[C@@]1(C)CO1)C(C)C [Ac-IVL-Ex]
kobs/[I] Chymotrypsin-like [1]: 5 ± 0.1 M⁻¹ s⁻¹ | kobs/[I] Trypsin-like [2]: 6.7 ± 0.1 M⁻¹ s⁻¹ | kobs/[I] PGPH [3]: 14.6 ± 4.2 M⁻¹ s⁻¹

CC(C)C[C@@H](/C=C/S(C)(=O)=O)NC(=O)[C@H](CC(C)C)NC(=O)[C@H](CC(C)C)NC(=O)Cc1cc(N)c(O)c(I)c1 [reference compound]
kinact/KI [1, 5]: 5000 M⁻¹ s⁻¹ | kinact/KI [2, 7]: 3.4 M⁻¹ s⁻¹ | kinact/KI [3, 6]: 4 M⁻¹ s⁻¹

CC(=O)N1CCC[C@H]1C(=O)N1CCC[C@H]1C(=O)N[C@@H](Cc1ccccc1)C(=O)N[C@@H](CC(C)C)C(=O)[C@@]1(C)CO1 [Ac-PPFL-Ex]
kobs/[I] Chymotrypsin-like [1]: 6.4 ± 3.3 M⁻¹ s⁻¹ | kobs/[I] PGPH [3]: 10.6 ± 0.3 M⁻¹ s⁻¹

CC(=O)NCC(=O)N1CCC[C@H]1C(=O)N[C@@H](Cc1ccccc1)C(=O)N[C@@H](CCC(=O)O)C(=O)[C@@]1(C)CO1 [Ac-Gly-Pro-Phe-Glu-α′,β′-epoxyketone]
selectivity for the PGPH activity [3]: did not display any significant selectivity

CC(=O)N[C@@H](CC(C)C)C(=O)N[C@@H](CC(C)C)C(=O)N[C@@H](CC(C)C)C(=O)N[C@@H](CC(C)C)C(=O)[C@@]1(C)CO1
kinact/KI [1, 8]: 14000 M⁻¹ s⁻¹ | kobs/[I] for tryptic-like activity using Boc-LRR-AMC [2]: not measurable | kinact/KI [3, 9]: 9.2 M⁻¹ s⁻¹

CC(=O)N[C@@H](Cc1ccccc1)C(=O)N[C@@H](CC(C)C)C(=O)N[C@@H](CC(C)C)C(=O)N[C@@H](CC(C)C)C(=O)[C@@]1(C)CO1 [P4 phenyl]
kobs/[I] for chymotryptic-like activity using Suc-LLVY-AMC [1]: 37,000 | kobs/[I] for tryptic-like activity using Boc-LRR-AMC [2]: 5.5 M⁻¹ s⁻¹ | kobs/[I] for PGPH activity using Z-LLE-AMC [3]: 78

CC(=O)N[C@@H](CC(C)C)C(=O)N[C@@H](CC(C)C)C(=O)N[C@@H](Cc1cccc2ccccc12)C(=O)N[C@@H](CC(C)C)C(=O)[C@@]1(C)CO1 [P2 1-naphthyl]
kobs/[I] for chymotryptic-like activity using Suc-LLVY-AMC [1]: 29,000 | kobs/[I] for tryptic-like activity using Boc-LRR-AMC [2]: not measurable | kobs/[I] for PGPH activity using Z-LLE-AMC [3]: not measurable

CC(=O)N1CCC(C(=O)N2CCC[C@H]2C(=O)N[C@@H](Cc2ccccc2)C(=O)N[C@@H](CC(C)C)C(=O)[C@@]2(C)CO2)CC1 [N-acetyl-piperidinecarbonyl-PFL-Ex]
kobs/[I] Chymotrypsin-like [1]: 31.2 ± 0.6 M⁻¹ s⁻¹ | kobs/[I] PGPH [3]: 45.3 ± 2.2 M⁻¹ s⁻¹

CC(=O)N[C@@H](CCc1ccccc1)C(=O)N[C@@H](CC(C)C)C(=O)N[C@@H](CC(C)C)C(=O)N[C@@H](CC(C)C)C(=O)[C@@]1(C)CO1 [P4 methylphenyl]
kobs/[I] for chymotryptic-like activity using Suc-LLVY-AMC [1]: 63,000 | kobs/[I] for tryptic-like activity using Boc-LRR-AMC [2]: 5.4 M⁻¹ s⁻¹ | kobs/[I] for PGPH activity using Z-LLE-AMC [3]: 50

CC[C@H](C)[C@H](NC(C)=O)C(=O)N[C@H](C(=O)N[C@@H](CCC(=O)O)C(=O)[C@@]1(C)CO1)C(C)C [Ac-Ile-Val-Glu-α′,β′-epoxyketone]
selectivity for the PGPH activity [3]: did not display any significant selectivity

CC(=O)N[C@@H](CC(C)C)C(=O)N[C@@H](CC(C)C)C(=O)[C@@]1(C)CO1
kinact/KI [1, 8]: 3.1 M⁻¹ s⁻¹

CC(=O)N[C@@H](Cc1cccc2ccccc12)C(=O)N[C@@H](CC(C)C)C(=O)N[C@@H](CC(C)C)C(=O)N[C@@H](CC(C)C)C(=O)[C@@]1(C)CO1 [P4 I -naphthyl]
kobs/[I] for chymotryptic-like activity using Suc-LLVY-AMC [1]: 29,000 | kobs/[I] for tryptic-like activity using Boc-LRR-AMC [2]: not measurable | kobs/[I] for PGPH activity using Z-LLE-AMC [3]: not measurable

isooctanoyl-Ser-Glu-α′,β′-epoxyketone
selectivity for the PGPH activity [3]: poor PGPH-selective inhibitors

CC(=O)N[C@@H](Cc1ccc(C(=O)c2ccccc2)cc1)C(=O)N[C@@H](CC(C)C)C(=O)N[C@@H](CC(C)C)C(=O)N[C@@H](CC(C)C)C(=O)[C@@]1(C)CO1 [P4 p-benzoylphenyl]
kobs/[I] for chymotryptic-like activity using Suc-LLVY-AMC [1]: 23,000 | kobs/[I] for tryptic-like activity using Boc-LRR-AMC [2]: not measurable | kobs/[I] for PGPH activity using Z-LLE-AMC [3]: not measurable
